This note sets out measurements from US20180311342A1, “IMMUNOSTIMULATING AGENT” (AJINOMOTO CO., INC., priority 2017, published 2018).

What all share (type): in vivo, BALB/c mice
Test [1] deals with anti-OVA-specific IgG1 subclass antibody. Kind of test: Adjuvant activity test: anti-OVA-specific IgG1 subclass antibody in serum of OVA-immunized mice (ELISA). The note with it: dorsal-subcutaneous, compared to OVA single administration group.
Test [2] concerns anti-OVA-specific IgG2a subclass antibody. As to the kind of experiment: Adjuvant activity test: anti-OVA-specific IgG2a subclass antibody in serum of OVA-immunized mice (ELISA). The note with it: dorsal-subcutaneous, compared to OVA single administration group. For orientation: In an ELISA, binding on a coated surface is turned into a signal by an enzyme label.
Test [3] concerns anti-OVA-specific IgG1 and IgG2a subclass antibody production. Kind of test: Evaluation test of adjuvant activity (overall conclusion from anti-OVA IgG1 and IgG2a production). Here is the method: 8-Week-old female BALB/c mice were divided into groups (N=6), and each group was primarily immunized by dorsal-subcutaneous administration of (1) ovalbumin (OVA) (5 μg) dissolved in saline as an antigen (OVA single administration group), (2) OVA 5 μg and Addavax™ (mixed with saline at 1:1) dissolved in saline (Addavax™ administration group) as positive control adjuvant, (3) OVA 5 μg and SZ137 0.256 μmol dissolved or dispersed in 5% α-cyclodextrin (hereinafter to be simply referred to as αCD)-added saline (SZ137 administration group), (4) OVA (5 μg) and SZ138 (0.256 μmol) dissolved or dispersed in 5% αCD-added saline (SZ138 administration group), (5) OVA (5 μg) and SZ142 (0.256 μmol) dissolved or dispersed in 5% αCD-added saline (SZ142 administration group), (6) OVA (5 μg) and SZ144 (0.256 μmol) dissolved or dispersed in 5% αCD-added saline (SZ144 administration group), (7) OVA (5 μg) and SZ145 (0.256 μmol) dissolved or dispersed in 5% αCD-added saline (SZ145 administration group), (8) OVA (5 μg) and SZ146 (0.256 μmol) dissolved or dispersed in 5% αCD-added saline (SZ146 administration group), (9) OVA (5 μg) and SZ147 (0.256 μmol) dissolved or dispersed in 5% αCD-added saline (SZ147 administration group), (10) OVA (5 μg) and SZ148 (0.256 μmol) dissolved or dispersed in 5% αCD-added saline (SZ148 administration group), each per mouse. Two week later, the secondary immunization was carried out by dorsal-subcutaneous administration of solutions or dispersions similar to those of the above-mentioned (1)-(10) again. […]
To a 96 well plate was added 5 μg/ml OVA at 100 µl/well, and the mixture was incubated at 4° C. overnight. After incubation, the mixture was washed three times with 200 μl of PBS-T (PBS (phosphate buffered saline)+0.05% (v/v) Tween 20) per well, and blocked with 100 μl of 5% FCS (fetal calf serum)/PBS solution per well at room temperature for 1-2 hr. Thereafter, the mixture was washed three times with PBS-T (200 μl/well), a diluted serum sample (100 l/well) or the same amount of 5% FCS/PBS solution as a control was added, and the mixture was incubated at 37° C. for 1 hr. To calculate concentration of the antibody, the standard of an anti-OVA-specific IgG1 subclass antibody diluted with 2% FCS/PBS solution was added at 100 ng/ml, 50 ng/ml, 25 ng/ml, 12.5 ng/ml, 6.25 ng/ml, 3.125 ng/ml, 1.56 ng/ml, 0.781 ng/ml, 0.391 ng/ml, 0.195 ng/ml, 0.098 ng/ml, 0 ng/ml, per 1 well. When an anti-OVA-specific IgG2a subclass antibody was measured, the standard of an anti-OVA-specific IgG2a subclass antibody was added at 50 ng/ml, 25 ng/ml, 12.5 ng/ml, 6.25 ng/ml, 3.125 ng/ml, 1.56 ng/ml, 0.781 ng/ml, 0.391 ng/ml, 0.195 ng/ml, 0.098 ng/ml, 0.049 ng/ml, 0 ng/ml, per 1 well. Thereafter, similar to the samples, the mixture was washed five times with PBS-T (200 μl/well), a diluted biotinylated anti-mouse IgG1 antibody and IgG2a antibody were added (100 μl/well), and the mixture was incubated at 37° C. for 45 min. Thereafter, the mixture was washed five times with PBS-T (200 μl/well), a diluted anti-biotin-HRP antibody was added (100 μl/well), and the mixture was incubated at 37° C. for another 30 min. Thereafter, the mixture was washed five times with PBS-T (200 μl/well), TMB substrate solution was added (100 μl/well), and the mixture was incubated at room temperature for 10-15 min. Thereafter, a reaction quenching liquid (2N sulfuric acid solution) was added (50 l/well) to discontinue a color developing reaction, and the absorbance (OD Value=450 nm) was measured by a microplate reader. A standard curve was drawn from the measured OD values, and the concentration was calculated. […]

Setting [4] is: Experimental Example 4: after secondary immunization, OVA 5 μg + compound 0.256 μmol dissolved in saline (no αCD).
Where [5] appears, read: conclusion from IgG1/IgG2a after secondary immunization, compound 0.256 μmol in 5% αCD-added saline with OVA 5 μg, dorsal-subcutaneous.
[6] abbreviates: after primary immunization, serum 2 weeks later, OVA 5 μg + compound 0.256 μmol in 5% αCD-added saline (Addavax mixed with saline at 1:1).

`CCCCCCCCCCCCCCCC(=O)N[C@@H](CCCNC(=N)N)C(=O)NCCCCCCCCCCCC.Cl` [SZ111, N-[(1S)-1-(dodecylcarbamoyl)-4-guanidino-butyl]hexadecanamide hydrochloride]: in test [1] (setting [4]), the “anti-OVA-specific IgG1 subclass antibody production” value is on record as “significantly increased”. Also, the “anti-OVA-specific IgG2a subclass antibody production” value in test [2] (setting [4]) is listed as “significantly increased”. Further, the adjuvant activity result in test [3] (Experimental Example 4: conclusion from IgG1/IgG2a after secondary immunization, compound dissolved in saline) was “has an adjuvant activity”; in test [3] (setting [5]), “has an adjuvant activity”.

Take `CCCCCCCCCCCCCCCCCCCCCC(=O)N[C@@H](CCCNC(=N)N)C(=O)NCCCCCCCCCCCC.Cl` [SZ138, N-[(1S)-1-(dodecylcarbamoyl)-4-guanidino-butyl]docosanamide hydrochloride]: in test [3] (setting [5]), the adjuvant activity entry is “have an adjuvant activity”.

On to `CCCCCCCCCCCCCCCCCCCCCC(=O)N[C@@H](CC(C)C)C(=O)NCCCCCCCCCCC` [SZ142, N-[(1S)-3-methyl-1-(undecylcarbamoyl)butyl]docosanamide], for which the adjuvant activity result in test [3] (setting [5]) is “have an adjuvant activity”.

On to `CCCCCCCCCCCCCCCC(=O)N[C@@H](CC(C)C)C(=O)NCCCCCCCCCCCC` [SZ144, N-[(1S)-1-(dodecylcarbamoyl)-3-methyl-butyl]hexadecanamide], for which, in test [3] (setting [5]), the adjuvant activity entry is given as “have an adjuvant activity”.

For `CCCCCCCCCCCCCCCCCCCCCC(=O)N[C@@H](C)C(=O)NCCCCCCCCCCCC` [SZ145, N-[(1S)-2-(dodecylamino)-1-methyl-2-oxo-ethyl]docosanamide], the adjuvant activity entry in test [3] (setting [5]) was “have an adjuvant activity”.

As for `CCCCCCCCCCCCCCCCCCCCCC(=O)NC(C)(C)C(=O)NCCCCCCCCCCCC` [SZ146, N-[2-(dodecylamino)-1,1-dimethyl-2-oxo-ethyl]docosanamide], the adjuvant activity result in test [3] (setting [5]) was “have an adjuvant activity”.

Turning to `CCCCCCCCCCCCCCCCCCCCCC(=O)NCCC(=O)NCCCCCCCCCCCC` [SZ147, N-[3-(dodecylamino)-3-oxo-propyl]docosanamide], the adjuvant activity entry in test [3] (setting [5]) was “have an adjuvant activity”.

In the case of `CCCCCCCCCCCCCCCCCCCCCC(=O)NCC(C)(C)C(=O)NCCCCCCCCCCCC` [SZ148, N-[3-(dodecylamino)-2,2-dimethyl-3-oxo-propyl]docosanamide], the adjuvant activity result in test [3] (setting [5]) was “have an adjuvant activity”.

Turning to `CCCCCCCCCCCCCCCCOC(=O)N[C@@H](CCCNC(=N)N)C(=O)NCCCCCCCCCCCC.Cl` [SZ150, Hexadecyl N-[(1S)-1-(dodecylcarbamoyl)-4-guanidino-butyl]carbamate hydrochloride], the adjuvant activity entry in test [3] (setting [5]) was “have an adjuvant activity”.

Consider `CCCCCCCCCCCCCCCC(=O)N[C@@H](CCCCN)C(=O)NCCCCCCCCCCCC.Cl` [SZ153, N-[(1S)-5-amino-1-(dodecylcarbamoyl)pentyl]hexadecanamide hydrochloride], for which the adjuvant activity result in test [3] (setting [5]) was “have an adjuvant activity”.

With `CCCCCCCCCCCCCCCCCCCCCC(=O)N[C@@H](CCCC)C(=O)NCCCCCCCCCCCC` [SZ155, N-[(1S)-1-(dodecylcarbamoyl)pentyl]docosanamide], the adjuvant activity result in test [3] (setting [5]) was “have an adjuvant activity”.

Consider `CCCCCCCCCCCCCCCCCCCCCC(=O)N1CCC(C(=O)NCCCCCCCCCCCC)CC1` [SZ156, 1-docosanoyl-N-dodecyl-piperidine-4-carboxamide], for which, in test [3] (setting [5]), the adjuvant activity entry is given as “have an adjuvant activity”.

Turning to `CCCCCCCCCCCCCCCCCCCCCC(=O)N[C@@H](CCCNC(=N)N)C(=O)N(CCCCCCC)CCCCCCC.Cl` [SZ159, N-[(1S)-1-(diheptylcarbamoyl)-4-guanidino-butyl]docosanamide hydrochloride], the adjuvant activity result in test [3] (setting [5]) is “have an adjuvant activity”.

With `CCCCCCCCCCCCCCCCCCCCCC(=O)N[C@@H](CCCCN)C(=O)NCCCCCCCCCCCC.Cl` [SZ160, N-[(1S)-5-amino-1-(dodecylcarbamoyl)pentyl]docosanamide hydrochloride], the adjuvant activity result in test [3] (setting [5]) was “have an adjuvant activity”.

As to `CCCCCCCC/C=C/CCCCCCCC(=O)N[C@@H](CCCNC(=N)N)C(=O)NCCCCCCCCCCCC.Cl` [SZ161, (E)-N-[(1S)-1-(dodecylcarbamoyl)-4-guanidino-butyl]octadeca-9-enamide hydrochloride], the adjuvant activity entry in test [3] (setting [5]) is on record as “have an adjuvant activity”.

Take `CCCCCCCCCCCCCCCCCCCCCC(=O)N[C@@H](CCCNC(=N)N)C(=O)NCCCCCCC.Cl` [SZ163, N-[(1S)-4-guanidino-1-(heptylcarbamoyl)butyl]docosanamide hydrochloride]: the adjuvant activity entry in test [3] (setting [5]) is “have an adjuvant activity”.

For the compound `CCCCCCCCCCCCCCCCCCCCCC(=O)N[C@@H](CCCN)C(=O)NCCCCCCCCCCCC.Cl` [SZ165, N-[(1S)-4-amino-1-(dodecylcarbamoyl)butyl]docosanamide hydrochloride], in test [3] (setting [5]), the adjuvant activity entry is “have an adjuvant activity”.

Turning to `CCCCCCCCCCCCCCCCCCCCCC(=O)N[C@@H](CCCCNC(=N)N)C(=O)NCCCCCCCCCCCC.Cl` [SZ166, N-[(1S)-1-(dodecylcarbamoyl)-5-guanidino-pentyl]docosanamide hydrochloride], in test [3] (setting [5]), the adjuvant activity entry is on record as “have an adjuvant activity”.

Take `CCCCCCCCCCCCCCCCCCCCCC(=O)N[C@@H](CCCCNC(C)=O)C(=O)NCCCCCCCCCCCC` [SZ167, N-[(1S)-5-acetamide-1-(dodecylcarbamoyl)pentyl]docosanamide]: in test [3] (setting [5]), the adjuvant activity entry was “have an adjuvant activity”.

For `CCCCCCCCCCCCCCCCNC(=O)N[C@@H](CCCNC(=N)N)C(=O)NCCCCCC.Cl` [SZ168, (2S)-5-guanidino-2-(hexadecylcarbamoylamino)-N-hexyl-pentanamide hydrochloride], in test [3] (setting [5]), the adjuvant activity result was “have an adjuvant activity”.

For the compound `CCCCCCCCCCCCCCCCOC(=O)N[C@@H](CCCNC(=N)N)C(=O)NCCCCCC.Cl` [SZ169, Hexadecyl N-[(1S)-4-guanidino-1-(hexylcarbamoyl)butyl]carbamate hydrochloride], the adjuvant activity result in test [3] (setting [5]) is on record as “have an adjuvant activity”.

Take `CCCCCCCCCCCCCCCCCCCCCC(=O)N[C@@H](CCCCNC(=N)N)C(=O)NCCCCCC.Cl` [SZ170, N-[(1S)-5-guanidino-1-(hexylcarbamoyl)pentyl]docosanamide hydrochloride]: the adjuvant activity entry in test [3] (setting [5]) was “have an adjuvant activity”.

As for `CCCCCCCCCCCCCCCCCCCC(=O)N[C@@H](CCCNC(=N)N)C(=O)NCCCCCCCCCCCC.Cl` [SZ180, N-[(1S)-1-(dodecylcarbamoyl)-4-guanidino-butyl]icosanamide hydrochloride], the “anti-OVA-specific IgG1 subclass antibody production” value in test [1] (setting [6]) is listed as “significant enhancement”. The “anti-OVA-specific IgG2a subclass antibody production” value in test [2] (setting [6]) is listed as “significant enhancement”. For the same compound, the adjuvant activity result in test [3] (conclusion from IgG1/IgG2a after primary immunization, compound 0.256 μmol in 5% αCD-added saline with OVA 5 μg, dorsal-subcutaneous) is “have an adjuvant activity”; in test [3] (setting [5]), “have an adjuvant activity”.
